Test results from PMC8069897, “A Targeted-Covalent Inhibitor of 17β-HSD1 Blocks Two Estrogen-Biosynthesis Pathways: In Vitro (Metabolism) and In Vivo (Xenograft) Studies in T-47D Breast Cancer Models” (Cancers, 2021).

Target: T1, 17β-hydroxysteroid dehydrogenase type 1 (17β-HSD1) (Homo sapiens, UniProt P14061)
T1 construct: gene HSD17B1
T1 sequence (P14061 2-328): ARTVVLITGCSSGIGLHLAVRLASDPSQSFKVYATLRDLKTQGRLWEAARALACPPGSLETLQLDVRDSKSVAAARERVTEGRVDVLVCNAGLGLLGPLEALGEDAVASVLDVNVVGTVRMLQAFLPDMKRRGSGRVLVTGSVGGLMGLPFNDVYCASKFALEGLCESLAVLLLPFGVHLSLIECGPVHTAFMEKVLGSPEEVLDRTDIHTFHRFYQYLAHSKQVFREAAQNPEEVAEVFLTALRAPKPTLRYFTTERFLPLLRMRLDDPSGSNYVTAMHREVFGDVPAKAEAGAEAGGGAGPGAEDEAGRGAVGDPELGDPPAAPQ
Assay: inhibition of […]-DHEA to […]-5-diol conversion in intact T-47D cells (endogenous […]β-HSD1), TLC
Assay type: cell-based

C[C@]12CC[C@@H]3c4ccc(CCBr)cc4CC[C@H]3[C@@H]1C[C@H](Cc1cccc(C(N)=O)c1)[C@@H]2O [PBRM]
IC50: 770 nM
